Measurements taken from PMC8261047, “In vivo Inhibition of the 3-Dehydroquinate Synthase by 7-Deoxysedoheptulose Depends on Promiscuous Uptake by Sugar Transporters in Cyanobacteria” (Frontiers in Microbiology, 2021).

T1: 3-dehydroquinate synthase (AvDHQS, Ava_4386) (Trichormus variabilis, UniProt Q3M4V2)
T1 construct: gene aroB; Ava_4386 in pET22b, C-terminal His-Tag, ∼39 kDa
T1 sequence (Q3M4V2 1-363): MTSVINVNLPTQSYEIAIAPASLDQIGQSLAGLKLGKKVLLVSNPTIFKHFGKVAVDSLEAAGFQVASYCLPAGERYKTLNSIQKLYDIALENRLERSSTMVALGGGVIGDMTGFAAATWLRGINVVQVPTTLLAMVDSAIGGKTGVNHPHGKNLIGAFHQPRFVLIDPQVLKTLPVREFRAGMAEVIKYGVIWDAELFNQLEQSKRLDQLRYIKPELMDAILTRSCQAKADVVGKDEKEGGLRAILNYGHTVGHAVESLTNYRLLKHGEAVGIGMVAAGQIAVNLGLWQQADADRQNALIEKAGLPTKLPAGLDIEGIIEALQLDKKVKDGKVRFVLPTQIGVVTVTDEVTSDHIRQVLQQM

B1: 3-dehydroquinate synthase (AvDHQS, Ava_4386) (Trichormus variabilis ATCC 29413) (protein)
chain: T1 sequence (Q3M4V2 1-363)
notes: Ava_4386 in pET22b, C-terminal His-Tag, ∼39 kDa

Experiments:
[1] = biological target: T1, 3-dehydroquinate synthase (AvDHQS, Ava_4386); assay: Malachite green phosphate release assay with purified AvDHQS; Michaelis-Menten kinetics at […] 7dSh; assay type: biochemical
[2] = substrate: O=C(O)C(=O)C[C@@H](O)[C@H](O)[C@H](O)COP(=O)(O)O; assay: Malachite green phosphate release assay with purified AvDHQS; kM of the substrate; assay type: biochemical, Trichormus variabilis; settings: NAD^+

Row | Molecule | Ki [1] [µM] | Km [2] [µM]
1 | C[C@@H](O)[C@@H](O)[C@@H](O)[C@H](O)C(=O)CO [7dSh, 7-deoxy-D-altro-2-heptulose] | 17.6 | –
2 | B1 | – | 1.8 ± 0.3
